Experiments:
Type in all cases: in vivo
[1] = system: Diabrotica balteata (Corn Root Worm); test: Example B2: Activity on Diabrotica balteata, maize sprout spray; conditions: 96 h, application rate of 200 ppm, L2 larvae on maize sprouts, 4 days after infestation, read-out: effect in at least one of the two categories (mortality or growth inhibition)
Description: Example B2: Activity on Diabrotica balteata (Corn Root Worm)
Maize sprouts placed onto an agar layer in 24-well microtiter plates were treated with aqueous test solutions prepared from 10′000 ppm DMSO stock solutions by spraying. After drying, the plates were infested with L2 larvae (6 to 10 per well). The samples were assessed for mortality and growth inhibition in comparison to untreated samples 4 days after infestation.

[2] = system: Myzus persicae (Green Peach Aphid); test: Example B4: Activity on Myzus persicae, sunflower leaf disc spray; conditions: foliar, 144 h, application rate of 200 ppm, mixed-age aphids on sprayed sunflower leaf discs, 6 days after infestation
Description: Example B4: Activity on Myzus persicae (Green Peach Aphid)
Sunflower leaf discs were placed onto agar in a 24-well microtiter plate and sprayed with aqueous test solutions prepared from 10′000 ppm DMSO stock solutions. After drying, the leaf discs were infested with an aphid population of mixed ages. The samples were assessed for mortality 6 days after infestation.

[3] = system: Myzus persicae (Green Peach Aphid); test: Example B5: Activity on Myzus persicae, pea seedling roots in test solution; conditions: 144 h, test rate of 24 ppm, roots of infested pea seedlings placed into test solution, 6 days
Description: Example B5: Activity on Myzus persicae (Green Peach Aphid)
Roots of pea seedlings infested with an aphid population of mixed ages were placed directly into aqueous test solutions prepared from 10′000 DMSO stock solutions. The samples were assessed for mortality 6 days after placing seedlings into test solutions.

[4] = system: Plutella xylostella (Diamond Back Moth); test: Example B6: Activity on Plutella xylostella, artificial diet, L2 larvae; conditions: 120 h, application rate of 200 ppm, 5 days after infestation, read-out: effect in at least one of the two categories (mortality or growth inhibition)
Description: Example B6: Activity on Plutella xylostella (Diamond Back Moth)
(§1) 24-well microtiter plates with artificial diet were treated with aqueous test solutions prepared from 10′000 ppm DMSO stock solutions by pipetting. After drying, the plates were infested with L2 larvae (10 to 15 per well). The samples were assessed for mortality and growth inhibition in comparison to untreated samples 5 days after infestation.

[5] = system: Spodoptera littoralis (Egyptian Cotton Leaf Worm); test: Example B7: Activity on Spodoptera littoralis, cotton leaf disc spray; conditions: foliar, 72 h, application rate of 200 ppm, L1 larvae on cotton leaf discs, 3 days after infestation, read-out: control (mortality, anti-feeding effect or growth inhibition)
Description: Example B7: Activity on Spodoptera littoralis (Egyptian Cotton Leaf Worm)
Cotton leaf discs were placed onto agar in 24-well microtiter plates and sprayed with aqueous test solutions prepared from 10′000 ppm DMSO stock solutions. After drying the leaf discs were infested with five L1 larvae. The samples were assessed for mortality, anti-feeding effect, and growth inhibition in comparison to untreated samples 3 days after infestation. Control of Spodoptera littoralis by a test sample is given when at least one of the categories mortality, anti-feedant effect, and growth inhibition is higher than the untreated sample.

[6] = system: Bemisia tabaci (Cotton White Fly); test: Example B1: Activity on Bemisia tabaci, cotton leaf disc spray; conditions: foliar, 144 h, application rate of 200 ppm, adult white flies on cotton leaf discs, 6 days after incubation
Description: Example B1: Activity on Bemisia tabaci (Cotton White Fly)
Cotton leaf discs were placed on agar in 24-well microtiter plates and sprayed with aqueous test solutions prepared from 10′000 ppm DMSO stock solutions. After drying the leaf discs were infested with adult white flies. The samples were checked for mortality 6 days after incubation.

[7] = system: Euschistus heros (Neotropical Brown Stink Bug); test: Example B3: Activity on Euschistus heros, soybean leaf spray; conditions: 120 h, application rate of 200 ppm, N2 nymphs on soybean leaves, 5 days after infestation, read-out: effect in at least one of the two categories (mortality or growth inhibition)
Description: Example B3: Activity on Euschistus heros (Neotropical Brown Stink Bug)
Soybean leaves on agar in 24-well microtiter plates were sprayed with aqueous test solutions prepared from 10′000 ppm DMSO stock solutions. After drying the leaves were infested with N2 nymphs. The samples were assessed for mortality and growth inhibition in comparison to untreated samples 5 days after infestation.

[8] = system: Plutella xylostella (Diamond Back Moth); test: Example B11: Activity on Plutella xylostella, artificial diet, eggs; conditions: 192 h, application rate of 200 ppm, 8 days after infestation, read-out: effect in at least one of the two categories (mortality or growth inhibition)
Description: Example B11: Activity on Plutella xylostella (Diamond Back Moth)
as §1, with “drying, Plutella eggs were pipetted through a plastic stencil onto a gel blotting paper and” for “drying,”, “plate was closed” for “plates were infested”, “it.” for “L2 larvae (10 to 15 per well).”, “8” for “5”

CCS(=N)(=O)c1cc(C2CC2)cnc1-n1cc2cnc(C(F)(F)F)cc2n1 (stereo not drawn) [Example P7, [5-cyclopropyl-2-[6-(trifluoromethyl)pyrazolo[4,3-c]pyridin-2-yl]-3-pyridyl]-ethyl-imino-oxo-λ^6-sulfane]
≥ 80%: percent effect (mortality or growth inhibition) at 200 ppm [1] | mortality at 200 ppm [2] | mortality at 24 ppm [3] | percent effect (mortality or growth inhibition) at 200 ppm [4] | percent control (mortality, anti-feedant effect or growth inhibition) at 200 ppm [5]

CCS(=N)(=O)c1cc(C2CC2)cnc1-c1nc2cc(C(F)(F)F)cnc2n1C (stereo not drawn) [Example P12, [5-cyclopropyl-2-[3-methyl-6-(trifluoromethyl)imidazo[4,5-b]pyridin-2-yl]-3-pyridyl]-ethyl-imino-oxo-λ^6-sulfane]
≥ 80%: percent effect (mortality or growth inhibition) at 200 ppm [1] | mortality at 200 ppm [2] | mortality at 24 ppm [3] | percent effect (mortality or growth inhibition) at 200 ppm [4] | percent control (mortality, anti-feedant effect or growth inhibition) at 200 ppm [5]

CCS(=N)(=O)c1cc(C2(C#N)CC2)cnc1-c1nc2cc(C(F)(F)F)cnc2n1C (stereo not drawn) [Example P6, 1-[5-(ethylsulfonimidoyl)-6-[3-methyl-6-(trifluoromethyl)imidazo[4,5-b]pyridin-2-yl]-3-pyridyl]cyclopropanecarbonitrile]
≥ 80%: mortality at 200 ppm [6] | mortality at 200 ppm [2] | mortality at 24 ppm [3] | percent effect (mortality or growth inhibition) at 200 ppm [4]

CCS(=N)(=O)c1cc(C2CC2)cnc1-c1nc2cc(C(F)(F)F)ncc2n1C (stereo not drawn) [Example P5, [5-cyclopropyl-2-[3-methyl-6-(trifluoromethyl)imidazo[4,5-c]pyridin-2-yl]-3-pyridyl]-ethyl-imino-oxo-λ^6-sulfane]
≥ 80%: percent effect (mortality or growth inhibition) at 200 ppm [1] | mortality at 200 ppm [2] | mortality at 24 ppm [3] | percent effect (mortality or growth inhibition) at 200 ppm [4] | percent control (mortality, anti-feedant effect or growth inhibition) at 200 ppm [5]

CCS(=N)(=O)c1cc(C2(C#N)CC2)ccc1-c1nc2cc(C(F)(F)F)cnc2n1C (stereo not drawn) [Example P15, 1-[3-(ethylsulfonimidoyl)-4-[3-methyl-6-(trifluoromethyl)imidazo[4,5-b]pyridin-2-yl]phenyl]cyclopropanecarbonitrile]
≥ 80%: mortality at 200 ppm [6] | percent effect (mortality or growth inhibition) at 200 ppm [7] | mortality at 200 ppm [2] | mortality at 24 ppm [3] | percent effect (mortality or growth inhibition) at 200 ppm [4] | percent control (mortality, anti-feedant effect or growth inhibition) at 200 ppm [5]

CCS(=N)(=O)c1cc(C2(C#N)CC2)cnc1-c1nc2cc(C(F)(F)F)n(OC)c(=O)c2n1C (stereo not drawn) [Example P8, 1-[5-(ethylsulfonimidoyl)-6-[5-methoxy-3-methyl-4-oxo-6-(trifluoromethyl)imidazo[4,5-c]pyridin-2-yl]-3-pyridyl]cyclopropanecarbonitrile]
≥ 80%: mortality at 200 ppm [6] | percent effect (mortality or growth inhibition) at 200 ppm [1] | percent effect (mortality or growth inhibition) at 200 ppm [7] | mortality at 200 ppm [2] | mortality at 24 ppm [3] | percent effect (mortality or growth inhibition) at 200 ppm [4] | percent control (mortality, anti-feedant effect or growth inhibition) at 200 ppm [5]

CCS(=N)(=O)c1cc(C2(C#N)CC2)ccc1-c1nc2cc(C(F)(F)F)ncc2n1C (stereo not drawn) [Example P13, 1-[3-(ethylsulfonimidoyl)-4-[3-methyl-6-(trifluoromethyl)imidazo[4,5-c]pyridin-2-yl]phenyl]cyclopropanecarbonitrile]
≥ 80%: mortality at 200 ppm [6] | percent effect (mortality or growth inhibition) at 200 ppm [1] | percent effect (mortality or growth inhibition) at 200 ppm [7] | mortality at 200 ppm [2] | mortality at 24 ppm [3]

CCS(=N)(=O)c1cc(C2(C#N)CC2)cnc1-c1nc2cc(C(F)(F)F)nnc2n1C (stereo not drawn) [Example P10, 1-[5-(ethylsulfonimidoyl)-6-[7-methyl-3-(trifluoromethyl)imidazo[4,5-c]pyridazin-6-yl]-3-pyridyl]cyclopropanecarbonitrile]
≥ 80%: mortality at 200 ppm [6] | percent effect (mortality or growth inhibition) at 200 ppm [1] | percent effect (mortality or growth inhibition) at 200 ppm [7] | mortality at 200 ppm [2] | mortality at 24 ppm [3]

CCS(=N)(=O)c1cc(C2CC2)cnc1-c1nc2cc(SC(F)(F)F)ncc2n1C (stereo not drawn) [Example P4, [5-cyclopropyl-2-[3-methyl-6-(trifluoromethylsulfanyl)imidazo[4,5-c]pyridin-2-yl]-3-pyridyl]-ethyl-imino-oxo-λ^6-sulfane]
≥ 80%: mortality at 200 ppm [6] | percent effect (mortality or growth inhibition) at 200 ppm [1] | percent effect (mortality or growth inhibition) at 200 ppm [7] | mortality at 200 ppm [2] | mortality at 24 ppm [3] | percent effect (mortality or growth inhibition) at 200 ppm [4] | percent control (mortality, anti-feedant effect or growth inhibition) at 200 ppm [5]

CCS(=N)(=O)c1cc(C2CC2)cnc1-c1nc2cc(S(=O)(=O)C(F)(F)F)ccc2o1 (stereo not drawn) [Example P19, [5-cyclopropyl-2-[5-(trifluoromethylsulfonyl)-l ,3-benzoxazol-2-yl]-3-pyridyl]-ethyl-imino-oxo-λ^6-sulfane]
≥ 80%: percent effect (mortality or growth inhibition) at 200 ppm [8]

CCS(=N)(=O)c1cc(C2CC2)cnc1-c1nc2cc(C(F)(F)F)nnc2n1C (stereo not drawn) [Example P11, [5-cyclopropyl-2-[7-methyl-3-(trifluoromethyl)imidazo[4,5-c]pyridazin-6-yl]-3-pyridyl]-ethyl-imino-oxo-λ^6-sulfane]
≥ 80%: percent effect (mortality or growth inhibition) at 200 ppm [1] | mortality at 200 ppm [2] | mortality at 24 ppm [3] | percent effect (mortality or growth inhibition) at 200 ppm [4] | percent control (mortality, anti-feedant effect or growth inhibition) at 200 ppm [5]

CCS(=N)(=O)c1cc(C2(C#N)CC2)ccc1-c1nc2cc(SC(F)(F)F)ncc2n1C (stereo not drawn) [Example P9, 1-[3-(ethylsulfonimidoyl)-4-[3-methyl-6-(trifluoromethylsulfanyl)imidazo[4,5-c]pyridin-2-yl]phenyl]cyclopropanecarbonitrile]
≥ 80%: percent effect (mortality or growth inhibition) at 200 ppm [7] | mortality at 200 ppm [2] | mortality at 24 ppm [3]

CCn1c(C(F)(F)F)cc2nc(-c3ncc(C4(C#N)CC4)cc3S(=N)(=O)CC)n(C)c2c1=O (stereo not drawn) [Example P14, 1-[6-[5-ethyl-3-methyl-4-oxo-6-(trifluoromethyl)imidazo[4,5-c]pyridin-2-yl]-5-(ethylsulfonimidoyl)-3-pyridyl] cyclopropanecarbonitrile]
≥ 80%: mortality at 200 ppm [6] | percent effect (mortality or growth inhibition) at 200 ppm [1] | percent effect (mortality or growth inhibition) at 200 ppm [7] | mortality at 200 ppm [2] | mortality at 24 ppm [3] | percent effect (mortality or growth inhibition) at 200 ppm [4] | percent control (mortality, anti-feedant effect or growth inhibition) at 200 ppm [5]

CCS(=N)(=O)c1cc(C2CC2)cnc1-c1nc2cc(SC(F)(F)F)ccc2o1 (stereo not drawn) [Example P18, [5-cyclopropyl-2-[5-(trifluoromethylsulfanyl)-1,3-benzoxazol-2-yl]-3-pyridyl]-ethyl-imino-oxo-λ^6-sulfane]
≥ 80%: percent effect (mortality or growth inhibition) at 200 ppm [8]

CCS(=N)(=O)c1cc(C2(C#N)CC2)cnc1-n1cc2cnc(C(F)(F)F)cc2n1 (stereo not drawn) [Example P17, 1-[5-(ethylsulfonimidoyl)-6-[6-(trifluoromethyl)pyrazolo[4,3-c]pyridin-2-yl]-3-pyridyl] cyclopropanecarbonitrile]
≥ 80%: mortality at 200 ppm [2] | mortality at 24 ppm [3] | percent effect (mortality or growth inhibition) at 200 ppm [8]
